# Columns and labels:
# [1] = tested on: naïve allogenic T lymphocytes; test: Stimulation of IL-2 and γIFN secretion by allogenic T lymphocytes (mixed leukocyte reaction, ELISA); type: cell-based, human; set-up: unit not given here; conditions: for Secretion of IL-2 by T lymphocytes / Secretion of γIFN by T lymphocytes: after 4 days; for Secretion of γIFN by T lymphocytes: Table 3; for Dendritic cell-induced secretion of γIFN by T lymphocytes: Table 8
# Experimental: The “control” and “LPC” cells used in this analysis are those obtained after 6 days of differentiation according to the protocol described in example 1.
# Naïve allogenic T lymphocytes are isolated from human peripheral blood. Peripheral blood mononuclear cells are isolated by density gradient centrifugation (600 g, 20 minutes) in the presence of Ficoll-Hypaque. After elimination of the monocytes on a Percoll gradient, the peripheral blood lymphocytes are found in the dense fraction. The T lymphocytes are purified by immunomagnetic depletion using a cocktail of anti-CD19 (antibody 4G7) (Becton Dickinson, Francklin Lakes, N.J., USA), anti-CD16 (antibody 3G8), anti-CD56 (antibody NKH1), anti-glycophorin A (antibody 11E4B7.6) and anti-CD14 (antibody RMPO52), monoclonal antibodies sold by Beckman Coulter.
# The purified T lymphocytes are cultured in flat-bottomed 96-well culture plates with the “control” or “LPC” cells.
# 2×10^5T cells are cultured in 200 μl of culture medium according to a monocytes differentiated in the presence or absence of LPC/T cells ratio (DC/LT ratio) of 1:5, 1:10 or 1:20. After 4 days, 50 μl of the culture supernatant are used to determine the secretion of IL-2 (interleukin 2) and of γIFN (gamma interferon) using an ELISA kit (Endogen, Woburn, Mass., USA).
# The inventors then used a PPARγ agonist, ciglitizone. A solution of ciglitizone (Sigma, 50 μM) was added to the culture medium on the fifth day of monocyte differentiation, as described in example 1, 15 minutes before the addition of a solution of LPC (40 μM, for […]). The cells obtained are “LPC+ciglitizone” cells. “Ciglitizone” cells were obtained according to the same protocol, but in the absence of LPC, and “LPC” cells were obtained as described in example 1, in the absence of ciglitizone.
# The functional ability of these cells (“control”, “ciglitazone” and “LPC+ciglitazone” cells) to stimulate T lymphocytes (LT) were then analyzed. These cells were cultured as described in example 4, in the presence of purified allogenic T lymphocytes. The secretion of γIFN was measured as in example 4.
# [2] = target: T1, PPARγ (Homo sapiens, UniProt P37231); test: PPAR binding activity by gel shift on nuclear proteins of treated monocytes; type: cell-based
# T1 construct: After having harvested the cells, the nuclear proteins were extracted with the Nuclear extract Kit (Sigma); endogenous in cells; host or cells: monocytes undergoing differentiation into dendritic cells (nuclear extract)
# T1 sequence (P37231 1-505): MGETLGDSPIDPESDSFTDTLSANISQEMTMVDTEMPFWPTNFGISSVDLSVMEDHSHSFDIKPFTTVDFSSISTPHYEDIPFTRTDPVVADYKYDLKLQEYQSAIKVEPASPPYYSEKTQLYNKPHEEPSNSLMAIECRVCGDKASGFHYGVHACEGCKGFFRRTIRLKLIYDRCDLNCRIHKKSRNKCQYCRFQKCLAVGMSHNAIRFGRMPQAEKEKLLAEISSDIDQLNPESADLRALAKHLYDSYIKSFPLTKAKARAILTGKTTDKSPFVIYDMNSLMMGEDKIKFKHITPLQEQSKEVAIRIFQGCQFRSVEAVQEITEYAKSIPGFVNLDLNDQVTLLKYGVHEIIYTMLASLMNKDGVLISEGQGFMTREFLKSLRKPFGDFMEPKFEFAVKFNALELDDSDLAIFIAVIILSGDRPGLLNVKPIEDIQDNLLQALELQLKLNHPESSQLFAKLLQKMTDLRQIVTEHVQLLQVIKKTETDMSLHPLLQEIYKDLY
# Experimental: Next, the inventors investigated the transcription factors involved in the maturation process induced by LPC. In order to determine whether PPARs are involved in the LPC-induced maturation, the ability of the two transcription factors PPARγ and PPARδ to bind was analyzed using the gel shift technique. 3 isotypes of PPAR nuclear receptors (peroxisome proliferator-activated receptor) exist: α, γ and δ. PPARγs are the targets for molecules of the thiazolidinedione class, such as ciglitizone, used in the treatment of type II diabetes. PPARδs have a broader expression and can be repressors of PPARγs. The monocytes undergoing differentiation were incubated for two hours with a solution of LPC (40 μM) (“LPC” cells). “Control” cells are also obtained in the absence of LPC in the culture medium. After having harvested the cells, the nuclear proteins were extracted with the Nuclear extract Kit (Sigma). The nuclear proteins were then brought into contact with a ratioactively labeled probe containing a response element recognized by PPARs. […] The PPAR binding activity was determined by measuring the intensity of these bands. These activities are expressed as a percentage with respect to the “control” cells. […]
# The activity of the PPARγ and PPARδ transcription factors was measured in these cells by the gel shift technique, as described above.
# INTRALIPID® regulates PPARs in vitro. […] The cells were harvested after 1 h, 2 h or 8 h of incubation with INTRALIPID®, the nuclear proteins were extracted and the activity of PPARγ and PPARδ was determined as described in example 6.
# Secondly, a solution of INTRALIPID® (50 μg/ml of phospholipids) was added to the culture medium on the 5th day of monocyte differentiation, 15 minutes before the addition of a solution of LPC (40 μM) (“LPC+Intralipid” cells). […] The cells were harvested after 2 h of incubation, the nuclear proteins were extracted and the activity of PPARγ and PPARδ was determined as described in example 6.
substance,measurement,setting,value
L-α-lysophosphatidylcholine [LPC],Secretion of IL-2 by T lymphocytes,[1]; DC/LT ratio 0,0
same,Secretion of IL-2 by T lymphocytes,[1]; DC/LT ratio 0.05,23 ± 1
same,Secretion of IL-2 by T lymphocytes,[1]; DC/LT ratio 0.1,47 ± 26
same,Secretion of IL-2 by T lymphocytes,[1]; DC/LT ratio 0.2,173 ± 31
same,Secretion of γIFN by T lymphocytes,[1]; DC/LT ratio 0,0
same,Secretion of γIFN by T lymphocytes,[1]; DC/LT ratio 0.05,73 ± 47
same,Secretion of γIFN by T lymphocytes,[1]; DC/LT ratio 0.1,439 ± 108
same,Secretion of γIFN by T lymphocytes,[1]; DC/LT ratio 0.2,795 ± 19
same,Dendritic cell-induced secretion of γIFN by T lymphocytes,[1]; DC/LT ratio 0,0
same,Dendritic cell-induced secretion of γIFN by T lymphocytes,[1]; DC/LT ratio 0.05,750 ± 184
same,Dendritic cell-induced secretion of γIFN by T lymphocytes,[1]; DC/LT ratio 0.1,899 ± 124
same,Dendritic cell-induced secretion of γIFN by T lymphocytes,[1]; DC/LT ratio 0.2,1326 ± 248
same,PPARγ binding activity,"[2]; Table 6, LPC 40 μM, two hours, percentage with respect to control cells",0%
same,PPARγ activity,"[2]; Table 16, Intralipid 50 μg/ml phospholipids 15 minutes before LPC 40 μM, 2 h, control = 100%",1%

# Reference: US7368287B2, “Use of L-α-lysophosphatidylcholine to obtain the differentiation of monocytes into mature dendritic cells in vitro” (Biomerieux, priority 2002, dated 2008)
